Measured values published in patent publication US8609680B2, “2,3-dihydro-1H-inden-1-yl-2,7-diazaspiro[3.5] nonane derivatives” (Pfizer Inc., priority 2010, dated 2013).
Where two headings read alike, the source gives them in different places. One block for each molecule: values may come before it.

Target: T1, human GHSR1a (Homo sapiens, UniProt Q92847)
T1 construct: expressed in transfected cells; host or cells: HEK293 Tetracycline-Inducible cell line, used as membranes
Assay: Human Ghrelin SPA Binding Assay
Source text: The SPA format was utilized for high throughput screening of test compounds and filter binding served for more comprehensive binding characterization.
Human Ghrelin SPA Binding Assay

[1] = SPA format, [125I] ghrelin displacement, human GHSR1a membranes from HEK293 Tetracycline-Inducible cell line

T1 sequence (Q92847 whole entry): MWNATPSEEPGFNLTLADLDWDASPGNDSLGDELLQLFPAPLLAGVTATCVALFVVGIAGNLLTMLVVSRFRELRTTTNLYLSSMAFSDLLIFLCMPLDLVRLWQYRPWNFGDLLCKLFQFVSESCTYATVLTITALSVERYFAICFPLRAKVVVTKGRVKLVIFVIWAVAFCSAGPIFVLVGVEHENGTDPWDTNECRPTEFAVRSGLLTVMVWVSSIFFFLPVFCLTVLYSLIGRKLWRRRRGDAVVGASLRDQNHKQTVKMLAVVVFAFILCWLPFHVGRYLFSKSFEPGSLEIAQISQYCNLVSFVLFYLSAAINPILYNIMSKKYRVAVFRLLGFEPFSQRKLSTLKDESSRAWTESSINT

SMILES: COc1ccc(CC(=O)N2CCC3(CC2)CN(C2CCc4cc(-c5ncc(C)cn5)ccc42)C3)cc1 (racemic) [Example 1E]
- IC50: 0.0341 µM

SMILES: COc1ccc(CC(=O)N2CCC3(CC2)CN(C2CCc4cc(-c5nccs5)ccc42)C3)nc1 (racemic) [Example 1F]
- Ki: 0.0228 µM

SMILES: COc1ccc(CC(=O)N2CCC3(CC2)CN(C2CCc4cc(Oc5ccccc5)ccc42)C3)nc1 (racemic) [Example 1I]
- IC50: 0.0366 µM
- Ki: 0.0295 µM

SMILES: COc1ccc(CC(=O)N2CCC3(CC2)CN(C2CCc4cc(-c5ccnc(C)c5)ccc42)C3)nc1 (racemic) [Example 2B]
- IC50: 0.00675 µM

SMILES: COc1ccc(CC(=O)N2CCC3(CC2)CN(C2CCc4cc(-c5ccc(C)cn5)ccc42)C3)nc1 (racemic) [Example 2D]
- IC50: 0.0214 µM

SMILES: COc1ccc(CC(=O)N2CCC3(CC2)CN(C2CCc4cc(-c5ncc(OC)cn5)ccc42)C3)nc1 (racemic) [Example 2E]
- IC50: 0.0352 µM
- Ki: 0.0636 µM

SMILES: COc1ccc(CC(=O)N2CCC3(CC2)CN(C2CCc4cc(-c5cc(C)ccn5)ccc42)C3)nc1 (racemic) [Example 2G]
- IC50: 0.00622 µM

SMILES: Cc1cn2cc(CC(=O)N3CCC4(CC3)CN(C3CCc5cc(-c6ncccn6)ccc53)C4)nc2s1 (stereo not shown) [Example 1B]
- Ki: 0.00459 µM
- IC50 [1]: 0.00379 µM

SMILES: O=C(Cc1n[nH]c2ccccc12)N1CCC2(CC1)CN(C1CCc3cc(-c4ncccn4)ccc31)C2 (stereo not shown) [Example 1C]
- IC50: 0.0164 µM
- Ki: 0.0142 µM

SMILES: COc1ccc(CC(=O)N2CCC3(CC2)CN(C2CCc4cc(-c5ccnc(C)n5)ccc42)C3)cc1 (stereo not shown) [Example 1D]
- IC50: 0.0194 µM

SMILES: COc1ccc(CC(=O)N2CCC3(CC2)CN(C2CCc4cc(-c5nccs5)ccc42)C3)nc1 (stereo not shown) [Example 1F-1]
- Ki: 0.00398 µM
- IC50 [1]: 0.00546 µM

SMILES: COc1ccc(CC(=O)N2CCC3(CC2)CN(C2CCc4cc(-c5ncc(C)s5)ccc42)C3)nc1 (stereo not shown) [Example 1G]
- IC50: 0.00756 µM
- Ki: 0.00867 µM

SMILES: Cc1nn2cc(CC(=O)N3CCC4(CC3)CN(C3CCc5cc(-n6nccn6)ccc53)C4)nc2s1 (stereo not shown) [Example 1H]
- IC50: 0.0111 µM
- Ki: 0.0104 µM

SMILES: COc1ccc(CC(=O)N2CCC3(CC2)CN(C2CCc4cc(-c5nccc(C)n5)ccc42)C3)cc1 (stereo not shown) [Example 1J]
- IC50: 0.00525 µM
- Ki: 0.00512 µM

SMILES: Cc1ccnc(-c2ccc3c(c2)CCC3N2CC3(CCN(C(=O)Cc4cn5cc(C)sc5n4)CC3)C2)n1 (stereo not shown) [Example 1K]
- IC50: 0.0259 µM

Continued, values first:

- IC50: 0.00702 µM
- Ki: 0.00615 µM
SMILES: O=C(Cc1ccc(C2CC2)cc1)N1CCC2(CC1)CN(C1CCc3cc(-c4ncccn4)ccc31)C2 (racemic) [Example 5A, 7-[(4-Cyclopropylphenyl)acetyl]-2-(5-pyrimidin-2-yl-2,3-dihydro-1H-inden-1-yl)-2,7-diazaspiro[3.5]nonane]

- IC50: 0.0059 µM
SMILES: O=C(Cc1cc2ccccn2n1)N1CCC2(CC1)CN(C1CCc3cc(-c4ncccn4)ccc31)C2 (racemic) [Example 5H]

- IC50: 0.00857 µM
- Ki: 0.00926 µM
SMILES: O=C(Cc1cc2n(n1)CCCC2)N1CCC2(CC1)CN(C1CCc3cc(-c4ncccn4)ccc31)C2 (racemic) [Example 5I]

- IC50: 0.0329 µM
- Ki: 0.0288 µM
SMILES: CCc1cc(-c2ccc3c(c2)CC[C@H]3N2CC3(CCN(C(=O)Cc4ccc(OC)cc4C#N)CC3)C2)ncn1 [Example 3AB]

- IC50: 0.0405 µM
- Ki: 0.0338 µM
SMILES: COc1ccc(CC(=O)N2CCC3(CC2)CN([C@@H]2CCc4cc(-c5cc(C#N)ncn5)ccc42)C3)nc1 [Example 3AC]

- IC50: 0.0732 µM
- Ki: 0.0689 µM
SMILES: COc1ccc(CC(=O)N2CCC3(CC2)CN([C@@H]2CCc4cc(-c5ccncn5)ccc42)C3)nc1 [Example 3AE]

- IC50: 0.0401 µM
- Ki: 0.0331 µM
SMILES: COc1ccc(CC(=O)N2CCC3(CC2)CN([C@@H]2CCc4cc(-c5ncco5)ccc42)C3)nc1 [Example 3AG]

- IC50: 0.0902 µM
- Ki: 0.0728 µM
SMILES: O=C(Cc1ccc(C(F)(F)F)cc1)N1CCC2(CC1)CN([C@@H]1CCc3cc(-c4ncccn4)ccc31)C2 [Example 3AH]

- IC50: 0.293 µM
- Ki: 0.261 µM
SMILES: COc1ccc(CC(=O)N2CCC3(CC2)CN([C@@H]2CCc4ccccc42)C3)cc1 [Example 3AJ]
